Legend:
miR-199a = assay: Northern blotting of miR-199a in myocytes; type: cell-based, rat; conditions: 100 μM, 16 h
Text: g. […] Total RNA was then extracted and analyzed by Northern blotting for the miRNA indicated on the left (n=2).
(§1) Northern blotting—As previously described.

miR-21 = assay: Northern blotting of miR-21 in cardiocytes; type: cell-based; conditions: isolated rat cardiocytes
Text: as §1
In order to address the role of miR-21 in cardiocytes a 320 nt sequence that encompasses the miR-21 stem-loop was cloned into a recombinant adenovirus (FIG. 8a). A tandem repeat of the anti-sense sequence of mature miR-21 was also cloned under the control of the U6 promoter (FIG. 8a). […] For that reason this construct was dubbed ‘miR-21 eraser’.

cardiocytes = assay: Cellular outgrowths/branches of cultured cardiocytes; type: cell-based, rat; conditions: cardiocytes treated with isoproterenol, titin staining
Experimental: Cell cultures and adenovirus Infection—Neonatal cardiac myocytes were prepared from Sprague Dawley rat hearts as previously described, using both pre-plating and percoll gradients for enriching of myocytes. Adult cardiac myocytes were prepared as previously described.
But after 48-72 h in culture extensive cellular outgrowths (4±3 branches/cell) were noticed that varied in length (44±28 μm) depending on the distance between neighboring cells (FIG. 8c). Sprouty, a known inhibitor of branching morphogenesis and neurite outgrowth, is predicted to be a miR-21 target by TargetScanS and PicTar miRNA target prediction software, each using a unique set of algorithms. To confirm its potential in mediating miR-21's branching effects, it was independently knocked down using adenoviral delivered short-hairpin RNA (see FIG. 8e).
The physiological relevance of these miR-21-induced outgrowths were assessed. After treatment of the cells with isoproterenol and staining them with an antibody against the sarcomeric protein titin, cellular outgrowth that were connecting or reaching out to adjacent cells was observed (FIG. 9a). The striated pattern of titin staining reflects the presence of sarcomeres even within these branches. This effect was wide spread in all observed fields (4±3 branches/cell). Impressively, these outgrowths were abrogated by the miR-21 eraser or over-expression of SPRY2 (FIG. 9a). […]

SPRY2 = SPRY2 protein in cardiocytes (Western blot, immunostaining); type: cell-based, rat; conditions: isoproterenol and β2AR
Text: Using Western blot analysis down-regulation of endogenous SPRY2 (52±4%) was confirmed upon over-expression of miR-21 for 48 hr (FIG. 8d). Since sprouty negatively regulates erk1/2, phospho-erk1/2 was used as a marker for monitoring changes in Spry2 function that would be regulated by changes in its levels. […] Thus, SPRY2 is a downstream target of miR-21 (could be a direct or indirect target at this juncture) and has limiting cellular concentrations.
The physiological relevance of these miR-21-induced outgrowths were assessed. After treatment of the cells with isoproterenol and staining them with an antibody against the sarcomeric protein titin, cellular outgrowth that were connecting or reaching out to adjacent cells was observed (FIG. 9a). The striated pattern of titin staining reflects the presence of sarcomeres even within these branches. This effect was wide spread in all observed fields (4±3 branches/cell). Impressively, these outgrowths were abrogated by the miR-21 eraser or over-expression of SPRY2 (FIG. 9a). […] Similar results were obtained when cells were treated the a virus over-expressing β2AR (supplementary FIG. 9s). While FIG. 7 confirms that isoproterenol and β2AR induce upregulation of miR-21, FIG. 9b confirms that they also induce 70±22% downregulation of SPRY2 protein (FIG. 9b). […]

[1] = test system: prolyl hydroxylase 2 (PHD2); assay: PHD2 protein in myocytes by Western blotting; type: cell-based, rat; conditions: myocytes overexpressing Sirt1, 20 mM
Experimental: b. Myocytes were treated as described in (a.) and as indicated in the grid by + signs. Protein was extracted and analyzed by Western blotting (n=3).
d. Myocytes were subjected to 24 h anoxia or HPC, before or after treatment with a control or miR-199a-expressing virus for 24 h where indicated by + signs. Protein was extracted and analyzed by Western blotting for the molecules indicated on the left.
e. Myocytes were treated with a control or Sirt1-overexpressing virus in the absence or presence or 20 mM nicotinamide (NAM). Protein was extracted and analyzed by Western blotting (n=3).
(§2) Cellular fractionation and Western blotting—Mitochondria was isolated using ProteoExtract Cytosol/Mitochondria Fractionation Kit (Calbiochem, NJ), according to the manufacturer's protocol. Fifteen μg of protein was separated on a 4% to 20% gradient SDS-PAGE (Criterion gels, Bio-Rad, CA) and transferred onto TransBlot Transfer membrane (Bio-Rad, CA).

Sirt1 = Sirt1 protein in myocytes by Western blotting; type: cell-based, rat; conditions: 40 μM, 24 h
Experimental: c. […] Protein was then extracted and analyzed by Western blotting.
b. Cultured adult rat cardiac myocytes were treated with miR-199a eraser for 24 h or HPC. Protein was extracted and analyzed by Western blotting for the molecules indicated on the left of each panel (n=3).
as §2

Nc1ncnc2c1ncn2[C@@H]1O[C@H](CO)[C@@H](O)[C@H]1O [adenosine]
miR-199a level (miR-199a): downregulation

CC(C)NCC(O)c1ccc(O)c(O)c1 (stereo not drawn) [isoproterenol]
miR-21 level (miR-21): upregulation | cellular outgrowths (cardiocytes): 4±3 branches/cell | downregulation of SPRY2 protein (SPRY2): 70±22%

NC(=O)c1cccnc1 [nicotinamide]
Sirt1-induced knockdown of PHD2 [1]: reversed

Oc1ccc(C=Cc2cc(O)cc(O)c2)cc1 [resveratrol]
Sirt1 expression (Sirt1): increase

— patent US9051568B2, “Anti-sense microrna expression vectors” (Rutgers, The State University of New Jersey, priority 2008, dated 2015)
